We go through five molecules from patent US20250109165A1, “CYCLOPHILIN INHIBITORS AND USES THEREOF” (The Broad Institute, Inc., priority 2022, published 2025).

The target of series [1] is T1, CypD (Homo sapiens, UniProt P30405).
T1 construct: PPIF (UniProtKB Entry P30405: res 45-207); made in house; host or cells: E. coli BL21(DE3)
Description: Chymotrypsin coupled prolyl-isomerase assay. The settings on record: for IC50: wild-type CypD. The format is biochemical. How it is done:
(§1) IC50 values were calculated to be the value at which 50% inhibition was achieved on each compound's non-linear regression fitted curve.

The subject of a further series is HeLa cells. Description: Fluorescence microscopy on HeLa cells. The format is cell-based, human. The settings on record: Cy5 labeled compound 6 μM. The method, then: Fluorescence microscopy on Hela cells. Into 96 well black, clear bottom TC treated plates, cells were seeded in Dulbecco's Modified Eagle Medium (DMEM) supplemented with 10% fetal bovine serum 24 hours prior at a density where wells were ˜80% confluent at time of experiment. Media was removed and cells were then stained with 50 μL of mixture containing Cy5 labeled compound (6 μM) in Kreb's ringer solution HEPES buffered pH 7.2 (KRB), for 1 hour at 37° C. Then, 50 μL Hoechst 33342 (8 μM) and Mitotracker Green FM (0.1 μM) in KRB was added directly to wells containing cells and incubated for 15 minutes at 37° C. Media was removed and cells were washed two times with 100 μL KRB. Cells were then kept adherent to the wells in 100 μL KRB for imaging. Fluorescence microscopy was conducted on an Opera Phenix Plus High-Content Screening System, using Alexa 488, Alexa 647, and Hoescht 33342 channels. Images were analyzed using Harmony 4.9.

The target of series [2] is T2, human carboxylesterase (CES1) (Homo sapiens, UniProt P23141).
T2 sequence (P23141 18-567): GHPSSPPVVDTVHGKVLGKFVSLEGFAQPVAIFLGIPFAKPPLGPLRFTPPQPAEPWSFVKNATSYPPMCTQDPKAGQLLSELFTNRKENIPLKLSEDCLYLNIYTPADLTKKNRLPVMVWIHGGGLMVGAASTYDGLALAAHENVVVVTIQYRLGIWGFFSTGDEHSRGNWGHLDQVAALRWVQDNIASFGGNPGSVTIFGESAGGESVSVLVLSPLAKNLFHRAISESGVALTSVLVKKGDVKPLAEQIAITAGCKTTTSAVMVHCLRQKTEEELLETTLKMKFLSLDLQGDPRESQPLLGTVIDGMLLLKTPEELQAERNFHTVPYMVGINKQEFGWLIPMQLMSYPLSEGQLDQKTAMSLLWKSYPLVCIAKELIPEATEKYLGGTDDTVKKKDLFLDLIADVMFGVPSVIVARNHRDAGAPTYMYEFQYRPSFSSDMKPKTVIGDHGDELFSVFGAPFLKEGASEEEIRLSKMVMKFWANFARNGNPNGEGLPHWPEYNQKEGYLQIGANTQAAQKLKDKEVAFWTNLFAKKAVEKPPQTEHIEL
The experiment in a line: In vitro esterase activity on ester pro-drug Cy5 derivatives. Conditions: 0.25 μM CES1, 37° C., 8 hours. The format is in vitro ADME. The method, then: In vitro esterase activity on ester pro-drug Cy5 derivatives of CypD inhibitors. Into PCR tubes, ester compound (6 μM) and either buffer only, CES1 (0.25 μM), or CES2 (0.25 μM) was diluted in 100 mM Tris-HCl buffer, pH 7.4, with a final DMSO concentration of 1%. Samples were maintained on a PCR block at 37° C. for 8 hours. After incubation, samples were diluted with 20 μL acetonitrile and analyzed by LC-MS at Harvard's Center for Mass Spectroscopy. Di-ester, mono-ester, and di-acid abundances were quantified by total ion count of the primary isotope, and the three compounds were summed and each one expressed as a fraction of the total sum.

For series [3], the system named is A549, HeLa, HEK293T, HepG2, and MEFs. The experiment in a line: Cellular esterase activity on ester pro-drug Cy5 derivatives. The class given is in vitro ADME, human and mouse. The settings on record: 6 μM, 48 hours (36 hours for HepG2). How it is done:
Cellular esterase activity on ester pro-drug Cy5 derivatives of CypD inhibitors. Into 96-well clear, flat-bottom TC-treated plates, cells were seeded in DMEM supplemented with 10% FBS for HEK293T, HeLa, and MEFs, F-12K supplemented with 10% FBS for A549, or MEM supplemented with 10% FBS for HepG2, 24 hours prior at a density where wells were ˜70% confluent at time of experiment. Media was removed and cells were incubated with 100 μL of mixture containing each Cy5-conjugated compound (6 μM) in their respective media at 1% DMSO for 48 hours (36 hours for HepG2) at 37° C. at 5% CO2. Supernatant was removed, and cells were washed 2 times with 100 μL of PBS pH 7.4 (Gibco). Cells were then lysed for 15 minutes with 30 μL of 10 mM Tris-HCl pH 8.0 buffer containing 0.05% SDS. Lysates were diluted with 100 μL acetonitrile and filtered. Lysates were analyzed by LC-MS at Harvard's Center for Mass Spectroscopy. Di-ester, mono-ester, and di-acid abundances were quantified by total ion count of the primary isotope, and the three compounds were summed and each one expressed as a fraction of the total sum.

Series [4] concerns CypD. Description: Chymotrypsin coupled prolyl-isomerase assay. The settings on record: for selectivity for CypD over CypA: CypD versus wild-type CypA. The class given is biochemical, human. How it is done: as §1
Another series addresses T3, CypD K118E/R124A (Homo sapiens, UniProt P30405, K118E/R124A).
T3 construct: made in house; host or cells: E. coli BL21(DE3)
Description: Chymotrypsin coupled prolyl-isomerase assay. The format is biochemical. How it is done:
as §1

Another series has as its target T4, CypD K118E (Homo sapiens, UniProt P30405, K118E).
T4 construct: made in house; host or cells: E. coli BL21(DE3)
The experiment in a line: Chymotrypsin coupled prolyl-isomerase assay. The settings on record: CypD K118E mutant; read-out: IC50^CypDK118E. The format is biochemical. The method, then:
as §1

A further series has as its target T5, CypD R124A (Homo sapiens, UniProt P30405, R124A).
T5 construct: made in house; host or cells: E. coli BL21(DE3)
The experiment in a line: Chymotrypsin coupled prolyl-isomerase assay. The class given is biochemical. Conditions: CypD R124A mutant; read-out: IC50^CypDR124A. How it is done:
as §1

The next series has as its system cyclophilins. The experiment in a line: Prolyl-isomerase inhibition screen on cyclophilins and cyclophilin mutants. The settings on record: for potency on cyclophilin mutants compared to wild-type (in words): mutants as named at the place. The format is biochemical, human. How it is done: as §1
The next series has as its target T6, CypA (Homo sapiens, UniProt P62937).
T6 construct: PPIA (UniProtKB Entry P62937: res 1-165); made in house; host or cells: E. coli BL21(DE3)
Description: Chymotrypsin coupled prolyl-isomerase assay. Conditions: wild-type CypA. The format is biochemical. How it is done: as §1

The target in the next series is T7, CypD K118A (Homo sapiens, UniProt P30405, K118A).
T7 construct: made in house; host or cells: E. coli BL21(DE3)
Description: Chymotrypsin coupled prolyl-isomerase assay. Conditions: CypD K118A mutant; read-out: IC50^CypDK118A. The class given is biochemical. How it is done: as §1

The target in another series is T8, CypD S123E (Homo sapiens, UniProt P30405, S123E).
T8 construct: made in house; host or cells: E. coli BL21(DE3)
The experiment in a line: Chymotrypsin coupled prolyl-isomerase assay. The format is biochemical. Conditions: CypD S123E gatekeeper mutant; read-out: IC50^CypDS123E. How it is done:
as §1

The target in another series is T9, CypB (Homo sapiens, UniProt P23284).
T9 construct: PPIB (UniProtKB Entry P23284: res 34-216); His6 tag with TEV site (seen as […]- and […]- forms) (N); made in house; host or cells: E. coli BL21(DE3)
Description: Chymotrypsin coupled prolyl-isomerase assay. The class given is biochemical. The settings on record: wild-type CypB. The method, then:
as §1

A further series addresses T10, CypB E121S (Homo sapiens, UniProt P23284, E121S).
T10 construct: Lane 14-SNA-CypB E121S (34-216); His6 tag (N, cleaved yes); made in house; host or cells: E. coli BL21(DE3)
The experiment in a line: Chymotrypsin coupled prolyl-isomerase assay. The class given is biochemical. Conditions: CypB E121S gatekeeper mutant; read-out: IC50^CypBE121S. The method, then:
as §1

The target of a further series is T11, CypA E81S/K82R (Homo sapiens, UniProt P62937, E81S/K82R).
T11 construct: Lane 12-SNA-CypA E81S/K82R (1-165); His6 tag (N, cleaved yes); made in house; host or cells: E. coli BL21(DE3)
The experiment in a line: Chymotrypsin coupled prolyl-isomerase assay. The format is biochemical. Conditions: CypA E81S/K82R gatekeeper mutant; read-out: IC50^CypAE81S/K82R. The method, then: as §1

T1 sequence (P30405 45-207): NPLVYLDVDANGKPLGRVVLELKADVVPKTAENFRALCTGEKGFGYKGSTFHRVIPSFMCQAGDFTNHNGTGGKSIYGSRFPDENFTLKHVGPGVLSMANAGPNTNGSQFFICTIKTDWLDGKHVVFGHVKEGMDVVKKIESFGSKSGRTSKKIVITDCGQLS
T4 sequence (P30405 45-207 K118E): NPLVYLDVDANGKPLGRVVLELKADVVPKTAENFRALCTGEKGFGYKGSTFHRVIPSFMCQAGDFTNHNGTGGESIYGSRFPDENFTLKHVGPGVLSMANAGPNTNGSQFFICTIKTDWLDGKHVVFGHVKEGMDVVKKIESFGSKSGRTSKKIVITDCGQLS
T3 sequence (P30405 45-207 K118E/R124A): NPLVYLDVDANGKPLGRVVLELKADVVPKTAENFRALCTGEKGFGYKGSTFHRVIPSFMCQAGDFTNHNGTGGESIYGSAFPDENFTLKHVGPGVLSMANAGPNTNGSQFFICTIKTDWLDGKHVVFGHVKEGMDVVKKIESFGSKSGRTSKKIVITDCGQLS
T9 sequence (P23284 34-216): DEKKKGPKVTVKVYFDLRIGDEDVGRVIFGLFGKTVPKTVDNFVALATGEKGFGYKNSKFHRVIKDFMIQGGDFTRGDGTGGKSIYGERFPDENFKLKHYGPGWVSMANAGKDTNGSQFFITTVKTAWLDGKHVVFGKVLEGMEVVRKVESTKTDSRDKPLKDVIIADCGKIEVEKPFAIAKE
T10 sequence (P23284 34-216 E121S): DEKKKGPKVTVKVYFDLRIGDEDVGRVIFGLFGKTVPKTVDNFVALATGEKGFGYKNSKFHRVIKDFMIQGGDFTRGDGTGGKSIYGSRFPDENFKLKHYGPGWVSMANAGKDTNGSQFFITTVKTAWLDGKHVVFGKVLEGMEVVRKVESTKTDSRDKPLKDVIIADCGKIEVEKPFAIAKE
T11 sequence (P62937 whole entry E81S/K82R): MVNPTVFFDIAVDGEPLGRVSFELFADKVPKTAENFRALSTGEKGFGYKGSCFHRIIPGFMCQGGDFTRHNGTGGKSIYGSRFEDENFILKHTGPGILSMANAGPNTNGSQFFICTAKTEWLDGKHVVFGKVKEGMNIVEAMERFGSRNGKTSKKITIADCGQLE
T7 sequence (P30405 45-207 K118A): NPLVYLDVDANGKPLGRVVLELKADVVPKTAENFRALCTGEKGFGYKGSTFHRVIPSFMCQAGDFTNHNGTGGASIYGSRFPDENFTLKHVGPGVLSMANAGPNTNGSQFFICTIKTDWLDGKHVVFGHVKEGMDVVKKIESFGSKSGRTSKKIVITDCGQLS
T8 sequence (P30405 45-207 S123E): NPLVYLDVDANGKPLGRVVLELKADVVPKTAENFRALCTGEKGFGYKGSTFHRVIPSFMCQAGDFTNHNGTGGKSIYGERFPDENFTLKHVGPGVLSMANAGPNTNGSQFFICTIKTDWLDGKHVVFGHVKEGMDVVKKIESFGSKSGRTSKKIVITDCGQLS
T6 sequence (P62937 whole entry): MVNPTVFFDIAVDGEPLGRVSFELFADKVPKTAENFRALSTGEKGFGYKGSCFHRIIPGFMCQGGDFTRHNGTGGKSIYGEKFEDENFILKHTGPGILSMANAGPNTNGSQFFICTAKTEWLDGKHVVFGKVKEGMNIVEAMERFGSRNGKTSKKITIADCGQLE
T5 sequence (P30405 45-207 R124A): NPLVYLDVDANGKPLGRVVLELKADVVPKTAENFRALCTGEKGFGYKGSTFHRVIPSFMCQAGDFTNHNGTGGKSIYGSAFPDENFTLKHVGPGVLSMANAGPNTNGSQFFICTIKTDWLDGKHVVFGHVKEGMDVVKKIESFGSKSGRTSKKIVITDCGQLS

For the molecule `CCOC(=O)C(Cc1ccc(-c2ccc(C[C@H]3NC(=O)[C@@]4(Cc5ccccc5)CCCN(C4)C(=O)/C=C/C(=O)NCC[C@H](C(=O)NCCNC(=O)CCCCCN4\C(=C/C=C/C=C/C5=[N+](C)c6ccccc6C5(C)C)C(C)(C)c5ccccc54)NC(=O)Cc4ccccc4CNC3=O)cc2)cc1)C(=O)OCC` [*B52-Et-Cy5], the “CypD prolyl-isomerase inhibition (in words)” value on CypD [1] is “did not potently inhibit”. Further, in the series with HeLa cells, the “mitochondrial localization (overlap with Mitotracker Green)” value is recorded as “good mitochondrial localization”; the “plasma membrane / mammalian cell permeability” value is “Strong mammalian cell permeability and mitochondrial localization”. In series [2], the “hydrolysis of ester prodrug by CES1” value was “hydrolyzed to their active dicarboxylate forms”. In series [3], the “intracellular conversion to di-acid by endogenous esterases” value is “readily converted to the corresponding di-acid”.

Turning to `CCOC(=O)CC(CC(=O)OCC)c1ccc(-c2ccc(C[C@H]3NC(=O)[C@@]4(Cc5ccccc5)CCCN(C4)C(=O)/C=C/C(=O)NCC[C@H](C(=O)NCCNC(=O)CCCCCN4\C(=C/C=C/C=C/C5=[N+](C)c6ccccc6C5(C)C)C(C)(C)c5ccccc54)NC(=O)Cc4ccccc4CNC3=O)cc2)cc1` [*B53-Et-Cy5], the “CypD prolyl-isomerase inhibition (in words)” value at CypD [1] is “did not potently inhibit”. In the series on HeLa cells, the “mitochondrial localization (overlap with Mitotracker Green)” value is “good mitochondrial localization”; the “plasma membrane / mammalian cell permeability” value was “Strong mammalian cell permeability and mitochondrial localization”. In series [2], the “hydrolysis of ester prodrug by CES1” value is “hydrolyzed to their active dicarboxylate forms”.

Regarding `NCCCc1ccc(-c2ccc(C[C@@H]3NC(=O)[C@]4(Cc5ccccc5)CCCN(C4)C(=O)/C=C/C(=O)NCC[C@@H](C(=O)NCCOCCN)NC(=O)Cc4ccccc4CNC3=O)cc2)cc1` [Compound B32], in the series on CypD [4] (CypD mutants K118E and R124A), the “inhibition potency improvement compared to wild-type CypD” value is reported as 5- to 6 fold. The “preference for CypD K118E/R124A over the nearest cyclophilin, PPWD1” value at CypD K118E/R124A is recorded as “at least 13 fold”. Also, at CypD K118E/R124A (CypD K118E/R124A), the “improvement compared to wild-type CypD” value worked out at 100 fold. Further, the IC50 at CypD K118E/R124A (CypD double mutant, read-out: IC50^CypDK11E/R124A) amounted to 60 nM; at CypD K118E it was 1100 nM; on CypD [1] it was 6000 nM; at CypD R124A, 700 nM. In addition, at CypD [1] (on inserting an amine with a net positive charge), the “reduction in CypD potency” value is reported as > 1,000 fold. Further, the “inhibition of cyclophilins tested (in words)” value in the series with cyclophilins is reported as “overall poor potency for each cyclophilin”.

For `NCCOCCNC(=O)[C@@H]1CCNC(=O)/C=C/C(=O)N2CCC[C@](Cc3ccccc3)(C2)C(=O)N[C@@H](Cc2ccc(-c3ccc(CC(C(=O)O)C(=O)O)cc3)cc2)C(=O)NCc2ccccc2CC(=O)N1` [Compound B52], the “selectivity for CypD over CypA” value in the series on CypD [4] is listed as 100 fold. For the same molecule, the IC50 amounted to 1100 nM against CypA; 73 nM on CypD K118A; 240 nM at CypD S123E; 210 nM at CypB; 300 nM on CypD K118E; 10 nM at CypD [1]. The IC50 on CypB E121S came out at 8 nM; at CypA E81S/K82R, 27 nM. Also, the “cyclophilin selectivity profile (in words)” value with cyclophilins was “high potency and selectivity for CypD”. In addition, in the series with cyclophilins, the “potency on cyclophilin mutants compared to wild-type (in words)” value is reported as “little to no ablation of potency”.

As to `NCCOCCNC(=O)[C@@H]1CCNC(=O)/C=C/C(=O)N2CCC[C@](Cc3ccccc3)(C2)C(=O)N[C@@H](Cc2ccc(-c3ccc(C(CC(=O)O)CC(=O)O)cc3)cc2)C(=O)NCc2ccccc2CC(=O)N1` [Compound B53], the “selectivity for CypD over CypA” value in the series with CypD [4] turned out to be 100 fold. The IC50 against CypA amounted to 3400 nM; at CypD K118A, 900 nM; on CypD S123E, 800 nM; at CypB, 1100 nM; on CypD K118E, 4000 nM; against CypD [1] it was 57 nM. In addition, the figures for the IC50 at CypB E121S and on CypA E81S/K82R were 50 nM and 180 nM, respectively. In addition, the “cyclophilin selectivity profile (in words)” value with cyclophilins is “high potency and selectivity for CypD”. For the same molecule, the “potency on cyclophilin mutants compared to wild-type (in words)” value in the series on cyclophilins was “little to no ablation of potency”.
